# From patent publication US5578616A, “Phenyl-alkyl-imidazoles” (Schering Corporation, priority 1995, dated 1996)
# pKi: −log10 of the molar value.
# Tested on: H3 receptors
# Assay: not given
# Settings: rat; cited from earlier work
row,Compound,short-term memory and reversal learning
1,S=C(NC1CCCCC1)N1CCC(c2cnc[nH]2)CC1 [thioperamide],can improve short-term memory and reversal learning

# Tested on: histamine H3 receptor
# Assay: not given
# Settings: mice, electrically induced convulsions; cited from earlier work
row,Compound,duration of each phase of convulsion
1,S=C(NC1CCCCC1)N1CCC(c2cnc[nH]2)CC1 [thioperamide],decreased the duration of each phase of convulsion

# Same assay, conditions: mice; cited from earlier work
row,Compound,electroconvulsive threshold
1,S=C(NC1CCCCC1)N1CCC(c2cnc[nH]2)CC1 [thioperamide],raised the electroconvulsive threshold

# Target: T1, H3 receptor (Cavia porcellus, UniProt Q9JI35)
# T1 construct: The source of the H3 receptors in this experiment was guinea pig brain; from tissue; host or cells: guinea pig brain membranes
# Assay: H3 Receptor Binding Assay
# Set-up: species or system guinea pig
# Settings: not given
# Procedure: The source of the H3 receptors in this experiment was guinea pig brain. The animals weighed 400-600 g. The brain tissue was homogenized using a Polytron in a solution of 50 mM Tris, pH 7.5. The final concentration of tissue in the homogenization buffer was 10% w/v. The homogenates were centrifuged at 1,000× g for 10 min. in order to remove clumps of tissue and debris. The resulting supernatants were then centrifuged at 50,000× g for 20 min. in order to sediment the membranes, which were next washed three times in homogenization buffer (50,000× g for 20 min. each). The membranes were frozen and stored at -70° C. until needed.
# All compounds to be tested were dissolved in DMSO and then diluted into the binding buffer (50 mM Tris, pH 7.5) such that the final concentration was 2 μg/mL with 0.1% DMSO. Membranes were then added (400 μg of protein) to the reaction tubes. The reaction was started by the addition of 3 nM [^3 H]R-α-methylhistamine (8.8 Ci/mmol) or 3 nM [^3 H]N^α -methylhistamine (80 Ci/mmol) and continued under incubation at 30° C. for 30 min. Bound ligand was separated from unbound ligand by filtration, and the amount of radioactive ligand bound to the membranes was quantitated by liquid scintillation spectrometry. All incubations were performed in duplicate and the standard error was always less than 10%. Compounds that inhibited more than 70% of the specific binding of radioactive ligand to the receptor were serially diluted to determine a Ki (μM).
# T1 sequence (Q9JI35 whole entry): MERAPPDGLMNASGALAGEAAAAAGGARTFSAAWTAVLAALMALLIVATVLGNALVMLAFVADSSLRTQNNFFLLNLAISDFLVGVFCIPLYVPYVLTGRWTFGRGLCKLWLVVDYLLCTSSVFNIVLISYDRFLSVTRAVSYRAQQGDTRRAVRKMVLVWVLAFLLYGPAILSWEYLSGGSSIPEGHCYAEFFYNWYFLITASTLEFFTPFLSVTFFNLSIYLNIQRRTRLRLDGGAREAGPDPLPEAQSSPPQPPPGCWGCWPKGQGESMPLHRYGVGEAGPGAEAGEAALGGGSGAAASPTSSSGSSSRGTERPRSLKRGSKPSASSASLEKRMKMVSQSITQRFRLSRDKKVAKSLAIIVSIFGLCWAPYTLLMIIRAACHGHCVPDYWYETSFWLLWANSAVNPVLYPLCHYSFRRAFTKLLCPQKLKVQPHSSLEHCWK
row,Compound,pKi
1,"N=C(CCc1ccc(Cc2cnc[nH]2)cc1)NCc1ccc(Cl)cc1 [Compound 27, N-[(4-Chlorophenyl)methyl]-4-[(1H-imidazol-4-yl)methyl]benzene propanimidamide]",6.74
2,"NCc1ccc(Cc2c[nH]cn2)cc1 [Compound 21, 4-[(1H-Imidazol-4-yl)methyl]benzenemethanamine]",7.11
3,"N=C(NCc1ccc(Cl)cc1)c1ccc(Cc2c[nH]cn2)cc1 [Compound 6, N-[(4-Chlorophenyl)methyl]-4-[(1H-imidazol-4-yl)methyl]benzene methanimidamide]",7.85
4,"O=C(Nc1ccc(Cl)cc1)OCc1ccc(Cc2c[nH]cn2)cc1 [Compound 38, [4-(1H-Imidazol-4-ylmethyl)phenyl]methyl N-(4-chlorophenyl)carbamate]",7.62
5,"COc1ccc(C/N=C(\N)c2ccc(Cc3c[nH]cn3)cc2)cc1 [Compound 6a, N-[(4-Methoxyphenyl)methyl]-4-[(1H-imidazol-4-yl)methyl]benzene methanimidamide]",6.25

# Same assay, conditions: guinea pig brain membranes; 3 nM [^3 H]R-α-methylhistamine or 3 nM [^3 H]N^α -methylhistamine; 30° C., 30 min, pH 7.5; read-out: Ki
row,Compound,pKi
1,"N=C(Cc1ccc(Cc2c[nH]cn2)cc1)NCc1ccc(Cl)cc1 [Compound 29, N-[(4-Chlorophenyl)methyl]-4-[(1H-imidazol-4-yl)methyl]benzene ethanimidamide]",8.14
2,"N=C(N)c1cccc(CCc2c[nH]cn2)c1 [Compound 16, 3-[(1H-Imidazol-4-yl)ethyl]benzene methanimidamide]",6.66
3,"N=C(NCc1ccc(C(F)(F)F)cc1)c1ccc(Cc2c[nH]cn2)cc1 [Compound 6b, N-[(4-trifluoromethylphenyl)methyl]-4-[(1H-imidazol-4-yl)methyl]benzenemethanimidamide]",6.85
4,"N=C(N)c1ccc(CCc2cnc[nH]2)cc1 [Compound 17, 4-[(1H-Imidazol-4-yl)ethyl]benzene methanimidamide]",6.77
5,"N=C(NCCc1ccccc1)c1ccc(Cc2c[nH]cn2)cc1 [Compound 6d, N-(2-Phenylethyl)-4-[(1H-imidazol-4-yl)methyl]benzene methanimidamide]",6.35
6,"N=C(N)c1ccc(Cc2c[nH]cn2)cc1 [Compound 9, 4-[(1H-Imidazol-4-yl)methyl]benzene methanimidamide]",7.42
7,"N=C(N)c1cccc(Cc2c[nH]cn2)c1 [Compound 10, 3-[(1H-Imidazol-4-yl)methyl]benzene methanimidamide]",6.51

# Same assay, conditions: pH 7.5, read-out: Inhibition of binding of radioactive ligand, Inhibition (%) at 2 μg/ml
row,Compound,inhibition at 2 µg/mL [%]
1,"O=C(OCc1ccc(Cl)cc1)c1ccc(Cc2c[nH]cn2)cc1 [Compound 43, (4-Chlorophenyl)methyl 4-(1H-imidazol-4-ylmethyl)benzoate]",16 to 78
2,"O=C(NCc1ccc(Cl)cc1)c1ccc(Cc2c[nH]cn2)cc1 [Compound 33, N-[(4-Chlorophenyl)methyl]-4-(1H-imidazol-4-ylmethyl)benzamide]",61
3,"Clc1ccc(COCc2ccc(Cc3c[nH]cn3)cc2)cc1 [Compound 36, 4-[[4-[[(4-Chlorophenyl)methoxy]methyl]phenyl]methyl]-1H-imidazole]",6 to 87
4,"N=C(NCc1ccncc1)c1ccc(Cc2c[nH]cn2)cc1 [Compound 6c, N-[(4-Pyridyl)methyl]-4-[(1H-imidazol-4-yl)methyl]benzene methanimidamide]",48
5,"O=C(OCc1ccc(Cc2c[nH]cn2)cc1)c1ccc(Cl)cc1 [Compound 40, [4-(1H-Imidazol-4-ylmethyl)phenyl]methyl 4-chlorobenzoate]",10
